Test results: article PMC11859031, “Assessment of the In Vitro Biological Activities of Schiff Base-Synthesized Copper Oxide Nanoparticles as an Anti-Diabetic, Anti-Alzheimer, and Anti-Cancer Agent” (Pharmaceutics, 2025)
≈ marks a conversion by molar mass, not a printed value.

How the values were obtained:
[1] = Iron reducing power (IRP); conditions: samples at 100 µg/mL; mean ± SE, n = 3
Experimental: ammonium molybdate. Methanol (80%) was used in place of the sample for the blank. The tubes were sealed and incubated in a boiling water bath for 90 minutes.
After cooling to room temperature, the absorbance was measured at 695 nm against the blank. […] was used at the same concentrations as a standard. The antioxidant capacity was expressed as mg gallic acid equivalent per gram weight.
The iron reducing power was determined as µg/mL using the method proposed by Oyaizu (1986). In brief, 1ml of the tested sample (at each concentration) was combined with 1mL of 200mM sodium phosphate buffer (pH 6.6) and 1mL of 1% potassium ferricyanide. […] The absorbance was measured at 700nm against a blank prepared without the sample. […] A high absorbance at 700nm indicates a higher reducing power in the reaction mixture.
The 1,1-Diphenyl-2-picryl-hydrazyl (DPPH) radical scavenging activities were evaluated using the method described by Rahman et al. An antioxidant substance capable of donating a hydrogen atom to a solution containing DPPH- can reduce the stable free radical, causing the solution to change color from violet to pale yellow.
The remaining DPPH- radical was quantified by measuring the intensity of a light-purple colored DPPH methanol solution in the visible range at 518 nm using a spectroscopic method. […]

[2] = system: Bcl-2 in Caco-2 cells; test: Bcl-2 ELISA in treated Caco-2 cells; assay type: cell-based, human; conditions: Caco-2 cells treated at the IC50 value, mean ± SE, n = 3
Experimental: (§1) Following the treatment of HepG-2, Caco-2, A549, and BJ-1 cells with the SB-CuO-NPs at their respective IC50 values, as illustrated in Figure 9 and detailed in Table 5, an assessment of the activities of the caspase-3 and Bcl-2 enzymes was conducted in the treated cells. […] This mechanism ultimately triggers apoptosis. Additionally, the increased activity of caspase-3 results in a decrease in the expression of cyclin D1 and CDK-2 mRNA, thereby promoting the arrest of the G1 phase of the cell cycle. Othman et al. further noted that the biosynthesized M-NPs facilitate apoptosis by inhibiting the expression of the PI3K/AKT and Ras/Raf/ERK protein signaling pathways.
(§2) Invitrogen Corporation, following the manufacturer's instructions.

[3] = system: Bcl-2 in BJ-1 cells; test: Bcl-2 ELISA in treated BJ-1 cells; assay type: cell-based, human; conditions: BJ-1 cells treated at the IC50 value, mean ± SE, n = 3
Experimental: as §1, §2

[4] = system: Bcl-2 in A549 cells; test: Bcl-2 ELISA in treated A549 cells; assay type: cell-based, human; conditions: A549 cells treated at the IC50 value, mean ± SE, n = 3
Experimental: as §1, §2

[5] = Total antioxidant capacity (TAC), phosphomolybdenum method; conditions: samples at 100 µg/mL; mean ± SE, n = 3
Experimental: 1. Preparation of SB-CuO-NPs
The copper oxide nanoparticles (CuO-NPs) were biosynthesized using a concentrated anhydrous copper sulfate solution (1 mM) as a metal precursor based […]
dissolved in 100 ml of deionized water to form a 0.1 M concentration. The Schiff base (SB) was mixed with the metal solution in a ratio of 4:1. The SB-CuO-NPs was monitored by a color change. They were dried at 80 °C after centrifuging the colloidal solution at 4000 rpm for 15 min.
2. Characterization of the SB-CuO-NPs
The spectra of the SB-CuO-NPs were characterized using a Shimadzu UV-VIS recording spectrophotometer UV-240 after diluting the samples (10-fold) with deionized water at λ 200 - 800 nm. Their surface zeta potentials were measured using the laser zeta meter (Malvern Zetasizer 2000, Malvern, Worcestershire, UK) following […]
Moreover, their average hydrodynamic sizes were determined using the laser diffraction method with multiple scattering techniques employing dynamic light scattering (DLS) (Malvern Zetasizer Nano ZS, Malvern Instruments Ltd., Malvern, United Kingdom) (Murdock et al., 2008). […]
All biological activities were assessed in the prepared samples at equal concentrations (100 µg/mL). […]
After cooling to room temperature, the absorbance was measured at 695 nm against the blank. […] The antioxidant capacity was expressed as mg gallic acid equivalent per gram weight. […]

[6] = system: human hepatocellular carcinoma (HepG-2) cell line; test: MTT cytotoxicity, HepG-2
[7] = MTT cytotoxicity, BJ-1; conditions: human, BJ-1 normal fibroblast cells
[8] = system: normal human fibroblast (BJ-1) cell line; test: MTT cytotoxicity, BJ-1; conditions: Homo sapiens, Fibroblast, 48 h, read-out: Median Inhibitory Concentration (IC50) BJ-1

Compound: Cc1nn(-c2ccccc2)c(Cl)c1C=NN=C1C(=O)Nc2ccccc21 [SB]
- Antioxidant activity IRP [1]: 47.66 ± 0.19 µg/mL
- Bcl-2 [2]: 3.77 ± 0.05 ng/mL
- Bcl-2 [3]: 4.98 ± 0.03 ng/mL
- Bcl-2 [4]: 8.26 ± 0.03 ng/mL
- Antioxidant activity TAC [5]: 65.41 ± 0.19 mg gallic acid/g
- viability at 31.13 µg/mL ([6]; HepG2): 87.6%
- viability at 62.5 µg/mL ([6]; HepG2): 74.6%
- viability at 125 µg/mL ([6]; HepG2): 53.1%
- viability at 250 µg/mL ([6]; HepG2): 40.2%
- viability at 500 µg/mL ([6]; HepG2): 19.3%
- IC50 ([6]; HepG2, 48 h, read-out: Median Inhibitory Concentration (IC50) HepG-2): 127 ± 3.13 µg/mL (≈ 350 µM)
- viability at 48 h, 31.13 μg/mL [7]: 90.9%
- viability at 48 h, 62.5 μg/mL [7]: 80.9%
- viability at 48 h, 125 μg/mL [7]: 62.7%
- viability at 48 h, 250 μg/mL [7]: 47.2%
- viability at 48 h, 500 μg/mL [7]: 19.1%
- IC50 [8]: 168 ± 2.22 µg/mL (≈ 461 µM)
